Legend:
PAK2(h) = molecular target: T1, PAK2(h) (Homo sapiens, UniProt Q13177); assay: Kinase screen; assay type: biochemical; details: 0.1% DMSO control = 100%
T1 construct: purchased Millipore (KinaseProfiler service)

LOK(h) = molecular target: T2, LOK(h) (Homo sapiens, UniProt O94804); assay: Kinase screen; assay type: biochemical; details: 0.1% DMSO control = 100%
T2 construct: purchased Millipore (KinaseProfiler service)

PTP MEG1(h) = molecular target: T3, PTP MEG1(h) (Homo sapiens, UniProt P29074); assay: Phosphatase screen; assay type: biochemical; details: 0.1% DMSO control = 100%
T3 construct: purchased Millipore (KinaseProfiler service)

DRAK1(h) = molecular target: T4, DRAK1(h) (Homo sapiens, UniProt Q9UEE5); assay: Kinase screen; assay type: biochemical; details: 0.1% DMSO control = 100%
T4 construct: purchased Millipore (KinaseProfiler service)

SW480 cells = assay: Illumina microarray gene expression analysis; assay type: cell-based
Protocol: A microarray analysis using an Illumina® array was performed in triplicate to investigate differential gene expression in cells treated with a Wnt pathway inhibitor. […] In vitro transcription reactions were incubated overnight (14 hr). Labeled cRNA was hybridized to Illumina® Human-6 v3 BeadChips (Illumina, San Diego, Calif.) at 58° C. overnight, according to the Illumina® Whole-Genome Gene Expression Protocol for BeadStation (Doc. #11226030.rev.C, Illumina Inc.). The hybridized BeadChip was stained with streptavidin-Cy3 (Amersham™, PA43001) for visualization and scanned with an Illumina® BeadArray Reader. The scanned images were imported into BeadStudio 3.1.3.0 (Illumina Inc) for extraction and quality control. A criterion of 0.5-fold change in expression was applied to the analysis. […] A list of differentially expressed genes of interest is given below in tables 1 and 2. […] Many known Wnt target genes (column 3) were influenced in treated cells. Some genes were influenced that are also affected in Ls174T colorectal cancer cells expressing an inducible dominant negative form of TCF-4 (column 4) (van de Wetering et al., Mol. Cell. Biol. (2008) 28(8), p. 2732-44). Other influenced genes that are important for cell cycle control and other genes correlated to regulated canonical Wnt signaling are also shown. The degree of modulation (column 5) is an indication of the degree of change between the non-treated and compound No. 1 treated samples.

T3 sequence (P29074 whole entry): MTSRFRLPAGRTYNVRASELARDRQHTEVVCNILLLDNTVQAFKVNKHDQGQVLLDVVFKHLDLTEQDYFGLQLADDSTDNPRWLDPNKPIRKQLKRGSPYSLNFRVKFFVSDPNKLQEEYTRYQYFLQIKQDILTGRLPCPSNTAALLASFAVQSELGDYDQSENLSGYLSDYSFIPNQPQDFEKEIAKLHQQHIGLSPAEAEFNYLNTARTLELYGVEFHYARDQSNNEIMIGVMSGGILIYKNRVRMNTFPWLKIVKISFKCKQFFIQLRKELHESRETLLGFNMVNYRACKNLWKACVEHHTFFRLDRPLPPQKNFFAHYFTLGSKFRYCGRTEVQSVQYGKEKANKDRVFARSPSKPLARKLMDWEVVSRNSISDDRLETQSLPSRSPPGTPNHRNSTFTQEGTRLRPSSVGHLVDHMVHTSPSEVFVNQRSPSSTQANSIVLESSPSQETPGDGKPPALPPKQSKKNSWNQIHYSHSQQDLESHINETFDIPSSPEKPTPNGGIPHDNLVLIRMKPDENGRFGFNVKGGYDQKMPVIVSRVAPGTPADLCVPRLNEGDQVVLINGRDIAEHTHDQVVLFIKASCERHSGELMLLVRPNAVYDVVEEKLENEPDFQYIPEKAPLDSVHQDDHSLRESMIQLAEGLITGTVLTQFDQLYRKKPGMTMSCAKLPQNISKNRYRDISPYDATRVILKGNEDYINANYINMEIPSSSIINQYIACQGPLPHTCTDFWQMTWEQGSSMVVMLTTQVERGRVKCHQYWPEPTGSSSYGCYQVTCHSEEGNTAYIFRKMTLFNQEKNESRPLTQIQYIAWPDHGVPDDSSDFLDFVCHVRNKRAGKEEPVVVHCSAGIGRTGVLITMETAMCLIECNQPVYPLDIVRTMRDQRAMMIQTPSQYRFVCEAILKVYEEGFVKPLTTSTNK
T4 sequence (Q9UEE5 whole entry): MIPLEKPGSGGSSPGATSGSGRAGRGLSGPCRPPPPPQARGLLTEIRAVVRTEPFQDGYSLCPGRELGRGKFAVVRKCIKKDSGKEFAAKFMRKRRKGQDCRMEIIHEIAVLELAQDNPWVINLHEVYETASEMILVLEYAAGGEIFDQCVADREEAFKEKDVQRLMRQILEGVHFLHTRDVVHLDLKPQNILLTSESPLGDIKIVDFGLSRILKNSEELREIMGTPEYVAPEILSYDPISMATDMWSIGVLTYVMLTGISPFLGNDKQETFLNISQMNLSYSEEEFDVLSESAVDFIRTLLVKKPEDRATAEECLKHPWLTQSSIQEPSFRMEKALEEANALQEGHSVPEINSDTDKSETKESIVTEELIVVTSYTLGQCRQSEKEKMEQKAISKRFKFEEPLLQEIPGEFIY
T1 sequence (Q13177 whole entry): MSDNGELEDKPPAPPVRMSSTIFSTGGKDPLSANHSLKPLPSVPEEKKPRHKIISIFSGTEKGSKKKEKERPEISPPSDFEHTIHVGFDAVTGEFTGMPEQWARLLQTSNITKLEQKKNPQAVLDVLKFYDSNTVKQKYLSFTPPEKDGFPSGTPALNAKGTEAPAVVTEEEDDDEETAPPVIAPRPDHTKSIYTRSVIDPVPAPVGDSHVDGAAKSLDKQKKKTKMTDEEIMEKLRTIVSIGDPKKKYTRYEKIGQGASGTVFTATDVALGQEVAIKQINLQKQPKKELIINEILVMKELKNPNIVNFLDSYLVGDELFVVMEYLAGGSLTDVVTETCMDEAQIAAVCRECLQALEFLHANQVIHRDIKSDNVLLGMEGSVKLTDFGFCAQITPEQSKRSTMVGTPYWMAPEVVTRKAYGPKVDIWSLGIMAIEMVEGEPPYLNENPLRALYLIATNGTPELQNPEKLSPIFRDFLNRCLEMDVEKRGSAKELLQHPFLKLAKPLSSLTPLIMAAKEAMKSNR
T2 sequence (O94804 whole entry): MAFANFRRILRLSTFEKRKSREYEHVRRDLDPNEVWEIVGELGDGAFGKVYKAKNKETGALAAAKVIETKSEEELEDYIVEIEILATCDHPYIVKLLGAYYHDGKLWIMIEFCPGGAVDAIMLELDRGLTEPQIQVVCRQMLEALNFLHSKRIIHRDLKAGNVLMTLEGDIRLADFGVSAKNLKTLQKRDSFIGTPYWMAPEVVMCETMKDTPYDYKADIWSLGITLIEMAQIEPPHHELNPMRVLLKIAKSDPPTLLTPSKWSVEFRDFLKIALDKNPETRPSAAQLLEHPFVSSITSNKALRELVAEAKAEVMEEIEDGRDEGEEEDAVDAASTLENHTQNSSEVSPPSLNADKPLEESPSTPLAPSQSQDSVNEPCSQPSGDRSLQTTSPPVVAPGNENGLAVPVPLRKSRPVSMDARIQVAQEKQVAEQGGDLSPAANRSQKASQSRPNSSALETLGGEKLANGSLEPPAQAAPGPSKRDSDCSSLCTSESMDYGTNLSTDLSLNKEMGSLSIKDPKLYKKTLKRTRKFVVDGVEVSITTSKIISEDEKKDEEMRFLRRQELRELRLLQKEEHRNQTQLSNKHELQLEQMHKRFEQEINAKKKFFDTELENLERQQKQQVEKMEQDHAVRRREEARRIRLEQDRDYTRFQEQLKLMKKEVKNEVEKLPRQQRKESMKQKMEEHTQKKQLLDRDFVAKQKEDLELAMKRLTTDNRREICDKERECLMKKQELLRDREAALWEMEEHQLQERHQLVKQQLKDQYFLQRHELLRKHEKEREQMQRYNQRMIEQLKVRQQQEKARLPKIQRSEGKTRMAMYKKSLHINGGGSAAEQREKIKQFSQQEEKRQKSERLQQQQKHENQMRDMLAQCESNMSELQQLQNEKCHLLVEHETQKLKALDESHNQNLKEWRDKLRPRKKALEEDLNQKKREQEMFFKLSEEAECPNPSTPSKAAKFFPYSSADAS

COc1ccc(-n2c(SCc3nc(-c4ccc(C)cc4)no3)nnc2-c2ccncc2)cc1 [Compound 1]
activity at 10 µM (PAK2(h)): 99%
activity at 10 µM (LOK(h)): 109%
activity at 10 µM (PTP MEG1(h)): 92%
activity at 10 µM (DRAK1(h)): 116%
Degree of modulation: CCAAT/enhancer binding protein (C/EBP), delta (SW480 cells; x at 10 μM and 25 μM): − (moderate down-regulation (log^2 ratio of between −0.5 and −1.0))
Degree of modulation: Kruppel-like factor 4 (gut) (SW480 cells; x at 10 μM and 25 μM): + (moderate up-regulation (log^2 ratio of between 0.5 and 1.0))
Degree of modulation: Kruppel-like factor 6 (SW480 cells; x at 10 μM and 25 μM): ++ (strong up-regulation (log^2 ratio of between 1.0 and 1.5))
Degree of modulation: LY6/PLAUR domain containing 5 (SW480 cells; x at 10 μM and 25 μM): −−− (very strong down-regulation (log^2 ratio of between −1.5 and −2))
Degree of modulation: LY6/PLAUR domain containing 6B (SW480 cells; x at 10 μM and 25 μM): ++ (strong up-regulation (log^2 ratio of between 1.0 and 1.5))
Degree of modulation: SPANXA1 (SW480 cells; x at 10 μM and 25 μM): −−− (very strong down-regulation (log^2 ratio of between −1.5 and −2))
Degree of modulation: SPANXB2 (SW480 cells; x at 10 μM and 25 μM): −−− (very strong down-regulation (log^2 ratio of between −1.5 and −2))
Degree of modulation: SPANXC (SW480 cells; x at 10 μM and 25 μM): −−− (very strong down-regulation (log^2 ratio of between −1.5 and −2))
Degree of modulation: SPANXE (SW480 cells; x at 10 μM and 25 μM): −−− (very strong down-regulation (log^2 ratio of between −1.5 and −2))
Degree of modulation: SRY (sex determining region Y)-box 18 (SW480 cells; x at 10 μM and 25 μM): − (moderate down-regulation (log^2 ratio of between −0.5 and −1.0))
Degree of modulation: TEA domain family member 4 (SW480 cells; x at 10 μM and 25 μM): − (moderate down-regulation (log^2 ratio of between −0.5 and −1.0))
Degree of modulation: WNT1 inducible signaling pathway protein 3 (SW480 cells; x at 10 μM and 25 μM): + (moderate up-regulation (log^2 ratio of between 0.5 and 1.0))
Degree of modulation: alkaline phosphatase, liver/bone/kidney (SW480 cells; x at 10 μM and 25 μM): − (moderate down-regulation (log^2 ratio of between −0.5 and −1.0))
Degree of modulation: axin 2 (SW480 cells; x at 10 μM and 25 μM): − (moderate down-regulation (log^2 ratio of between −0.5 and −1.0))
Degree of modulation: dickkopf homolog 1 (Xenopus laevis) (SW480 cells; x at 10 μM and 25 μM): −− (strong down-regulation (log^2 ratio of between −1.0 and −1.5))
Degree of modulation: frizzled homolog 4 (Drosophila) (SW480 cells; x at 10 μM and 25 μM): − (moderate down-regulation (log^2 ratio of between −0.5 and −1.0))
Degree of modulation: homeobox B2 (SW480 cells; x at 10 μM and 25 μM): − (moderate down-regulation (log^2 ratio of between −0.5 and −1.0))
Degree of modulation: homeobox B5 (SW480 cells; x at 10 μM and 25 μM): − (moderate down-regulation (log^2 ratio of between −0.5 and −1.0))
Degree of modulation: homeobox B7 (SW480 cells; x at 10 μM and 25 μM): − (moderate down-regulation (log^2 ratio of between −0.5 and −1.0))
Degree of modulation: inhibitor of DNA binding 2, dominant negative helix-loop-helix protein (SW480 cells; x at 10 μM and 25 μM): −− (strong down-regulation (log^2 ratio of between −1.0 and −1.5))
Degree of modulation: mitogen-activated protein kinase kinase 3 (SW480 cells; x at 10 μM and 25 μM): + (moderate up-regulation (log^2 ratio of between 0.5 and 1.0))
Degree of modulation: naked cuticle homolog 1 (Drosophila) (SW480 cells; x at 10 μM and 25 μM): − (moderate down-regulation (log^2 ratio of between −0.5 and −1.0))
Degree of modulation: peroxisome proliferator-activated receptor gamma (SW480 cells; x at 10 μM and 25 μM): ++ (strong up-regulation (log^2 ratio of between 1.0 and 1.5))
Degree of modulation: prickle homolog 2 (Drosophila) (SW480 cells; x at 10 μM and 25 μM): − (moderate down-regulation (log^2 ratio of between −0.5 and −1.0))
Degree of modulation: FYN oncogene related to SRC, FGR, YES (SW480 cells; x at 10 μM only): + (moderate up-regulation (log^2 ratio of between 0.5 and 1.0))
Degree of modulation: T-cell lymphoma invasion and metastasis 1 (SW480 cells; x at 10 μM only): + (moderate up-regulation (log^2 ratio of between 0.5 and 1.0))
Degree of modulation: catenin (cadherin-associated protein), alpha-like 1 (SW480 cells; x at 10 μM only): − (moderate down-regulation (log^2 ratio of between −0.5 and −1.0))
Degree of modulation: gastrin (SW480 cells; x at 10 μM only): − (moderate down-regulation (log^2 ratio of between −0.5 and −1.0))
Degree of modulation: low density lipoprotein receptor-related protein 5 (SW480 cells; x at 10 μM only): + (moderate up-regulation (log^2 ratio of between 0.5 and 1.0))
Degree of modulation: mitogen-activated protein kinase kinase kinase 1 (SW480 cells; x at 10 μM only): + (moderate up-regulation (log^2 ratio of between 0.5 and 1.0))
Degree of modulation: notum pectinacetylesterase homolog (Drosophila) (SW480 cells; x at 10 μM only): ++ (strong up-regulation (log^2 ratio of between 1.0 and 1.5))
Degree of modulation: secreted frizzled-related protein 5 (SW480 cells; x at 10 μM only): + (moderate up-regulation (log^2 ratio of between 0.5 and 1.0))
Degree of modulation: slowmo homolog 1 (Drosophila) (SW480 cells; x at 10 μM only): − (moderate down-regulation (log^2 ratio of between −0.5 and −1.0))
Degree of modulation: transmembrane 4 L six family member 5 (SW480 cells; x at 10 μM only): ++ (strong up-regulation (log^2 ratio of between 1.0 and 1.5))
Degree of modulation: A kinase (PRKA) anchor protein 1 (SW480 cells; x at 25 μM only): + (moderate up-regulation (log^2 ratio of between 0.5 and 1.0))
Degree of modulation: CD44 molecule (Indian blood group) (SW480 cells; x at 25 μM only): + (moderate up-regulation (log^2 ratio of between 0.5 and 1.0))
Degree of modulation: FOS-like antigen 1 (SW480 cells; x at 25 μM only): + (moderate up-regulation (log^2 ratio of between 0.5 and 1.0))
Degree of modulation: PDZ and LIM domain 1 (SW480 cells; x at 25 μM only): − (moderate down-regulation (log^2 ratio of between −0.5 and −1.0))
Degree of modulation: Sp5 transcription factor (SW480 cells; x at 25 μM only): − (moderate down-regulation (log^2 ratio of between −0.5 and −1.0))
Degree of modulation: adenomatosis polyposis coli down-regulated 1 (SW480 cells; x at 25 μM only): −− (strong down-regulation (log^2 ratio of between −1.0 and −1.5))
Degree of modulation: baculoviral IAP repeat-containing 5 (SW480 cells; x at 25 μM only): − (moderate down-regulation (log^2 ratio of between −0.5 and −1.0))
Degree of modulation: bone morphogenetic protein 1 (SW480 cells; x at 25 μM only): + (moderate up-regulation (log^2 ratio of between 0.5 and 1.0))
